Results published in patent publication US20200129528A1, “METHODS FOR TREATING BLOOD PRESSURE CONDITIONS USING AMINOSTEROL COMPOSITIONS” (Enterin, Inc., priority 2018, published 2020).

Columns and labels:
[1] = Pharmacokinetics of orally administered squalamine (ENT-01) in Stage 1; assay type: in vivo, human; settings: PD patients, this study
Experimental: PK data were collected on the 10 patients enrolled in Stage 1 and 10 patients enrolled in Stage 2 to determine the extent of systemic absorption. In Stage 1, PK data were obtained at each visit, pre-medication, at 1, 2, 4, 8 and 24 hours (Table 10). In Stage 2, PK was measured on days 1 and 6 of the randomization period pre-medication, at 1, 2, 4 and 8 hours (Table 11).
The mean Cmax, Tmax and T1/2 and AUC of the squalamine ion following squalamine (ENT-01) oral dosing for Stage 1 patients. The PK analyses are only approximate, as the lower limit of the validated concentration range was 10 ng/ml; most of the measured concentrations fell below that value. The mean Cmax, Tmax and T1/2 and AUC of the squalamine ion following squalamine (ENT-01) oral dosing for Stage 2 patients. The PK analyses are only approximate, as the lower limit of the validated concentration range was 0.5 ng/ml.

[2] = tested on: mice with constipation due to overexpression of human αS; settings: oral; cited from earlier work
[3] = tested on: IPANs (intrinsic primary afferent neuron); settings: perfusion through lumen of isolated bowel segment; cited from earlier work
[4] = mice, following systemic administration; into the duodenum through the biliary tract; cited from earlier work
[5] = cited from earlier work

CC(C)[C@@H](CC[C@@H](C)[C@H]1CC[C@H]2[C@@H]3[C@H](O)C[C@H]4C[C@@H](NCCCNCCCCN)CC[C@]4(C)[C@H]3CC[C@]12C)OS(=O)(=O)O [squalamine]
systemic absorption following oral administration [1]: not significantly absorbed into the systemic circulation | effect on gastro-intestinal motility [2]: stimulates gastro-intestinal motility | effect on propulsive peristaltic contractions [3]: increasing the frequency of propulsive peristaltic contractions | route of clearance [4]: cleared by the liver and excreted as the intact molecule | drug related GI toxicology ([5]; published clinical trials involving systemic administration): has not been reported | effect of intravenous administration on gastrointestinal motility ([5]; systemic blood levels one thousand-fold greater than after oral dosing, prior studies): not associated with increased gastrointestinal motility
